In patent US20150343016A1, “CHEMICAL ENTITIES AND THERAPEUTIC USES THEREOF” (The Regents of the University of Colorado, a body corporate, priority 2010, published 2015):

Test system: 1586 Head and Neck Cancer cell line
Assay: MTT assay, Bouvardin with ionizing radiation, 1586 (pre-treated)
Format: cell-based, human
Conditions: 1586 cells
Protocol: “Combination Index” computation. Combination Indices were calculated using CalcuSyn software (Biosoft), which uses the method of Chou and Talalay. This method first computes drug-induced effect using the Hill Equation: where E is the measured effect; C is the drug concentration; Emax is the full range of drug effect, usually at or near 100%; IC50 is the drug concentration producing the median effect of 50%; and n is the curve shape parameter describing the steepness of the concentration-effect relationship. The Chou and Talalay method then linearizes the Hill Equation by logarithmic transformation as: where fu is the fraction of cells left unaffected after drug exposure, fa is the fraction of cells affected by the exposure, C is the drug concentration used, Cm is the concentration to achieve the median effect, and n is the curve shape parameter. Cm and n are equivalent to IC50 and n, respectively, in the Hill Equation. The values of n (obtained from the slope), nlog(Cm) (obtained from the absolute value of the intercept), and, therefore, Cm are obtained by plotting log(fu−1−1) versus log(C). These numbers are then used to compute the Combination Index (CI) according to the formula: CI=(D)1/(Dx)1+(D)2/(Dx)2 (26). (Dx)1 and (Dx)2 are the doses required to achieve a given effect level for each treatment, i.e. a specified value of Fraction Affected or Fa. (D)1 and (D)2 are the doses of each treatment in a given combination which gives the same Fa.
The growth inhibitory effects of Bouvardin with ionizing radiation (IR) were evaluated using a modified tetrazolium salt (MTT) assay. In the MTT assay, 1,000 to 2,000 viable cells were plated in 100 uL of growth medium in 96-well plates (Corning, Ithaca, N.Y.). Following an overnight incubation, drug was added in varying concentrations and the plates were irradiated on the same day (co-treatment) or 24 hr later (pre-treatment) and incubated for 6 to 7 days. The tetrazolium salt was added at a concentration of 0.4 mg/mL to each well following the 6- to 7-day treatment. The plates were incubated with the salt for 4 hours at 37° C. At 4 hours, the medium was aspirated off, leaving the dark blue formazan product at the bottom of the wells. The reduced MTT product was solubilized by adding […] of 0.2 N HCl in 75% isopropanol, 23% MilliQ water to each well. Thorough mixing was done using a Titertek multichannel pipetman. The absorbency of each well was measured using an automated plate reader (Molecular Devices, Sunnyvale, Calif.). All experiments were done in triplicate.
MTT assays were used to determine the effect of Bouvardin (concentrations in uM) in combination with ionizing radiation (in Gy, X-axis). FIG. 14 depicts CI values for Bouvardin and radiation on 3 cell lines. Combination Index data from 3 different Head and Neck Cancer cell lines are shown. Black dashed lines represent a CI value of 1. CI values below 1 indicate synergy. 1586 and UM-SCC19 were pre-treated whereas HN31 was treated on the same day.

Question: What does the source list for `COc1ccc(C[C@H]2C(=O)N[C@H](C)C(=O)N(C)[C@@H]3C(=O)N(C)[C@@H](Cc4ccc(O)c(c4)Oc4ccc(cc4)[C@H]3O)C(=O)N[C@@H](C)C(=O)N[C@H](C)C(=O)N2C)cc1` (stereo in doubt) [Bouvardin, bouvardin]?
Answer: Combination Index (Bouvardin 0.001 uM + 1 Gy IR): 1.553; Fraction Affected (Bouvardin 0.001 uM + 1 Gy IR): 0.254; Combination Index (Bouvardin 0.001 uM + 2 Gy IR): 0.903; Fraction Affected (Bouvardin 0.001 uM + 2 Gy IR): 0.23; Combination Index (Bouvardin 0.001 uM + 4 Gy IR): 1.112; Fraction Affected (Bouvardin 0.001 uM + 4 Gy IR): 0.503; Combination Index (Bouvardin 0.003 uM + 1 Gy IR): 1.898; Fraction Affected (Bouvardin 0.003 uM + 1 Gy IR): 0.264; Combination Index (Bouvardin 0.003 uM + 2 Gy IR): 1.383; Fraction Affected (Bouvardin 0.003 uM + 2 Gy IR): 0.303; Combination Index (Bouvardin 0.003 uM + 4 Gy IR): 0.753; Fraction Affected (Bouvardin 0.003 uM + 4 Gy IR): 0.51; Combination Index (Bouvardin 0.006 uM + 1 Gy IR): 1.626; Fraction Affected (Bouvardin 0.006 uM + 1 Gy IR): 0.301; Combination Index (Bouvardin 0.006 uM + 2 Gy IR): 1.285; Fraction Affected (Bouvardin 0.006 uM + 2 Gy IR): 0.371; Combination Index (Bouvardin 0.006 uM + 4 Gy IR): 0.732; Fraction Affected (Bouvardin 0.006 uM + 4 Gy IR): 0.634; Combination Index (Bouvardin 0.01 uM + 1 Gy IR): 0.433; Fraction Affected (Bouvardin 0.01 uM + 1 Gy IR): 0.45; Combination Index (Bouvardin 0.01 uM + 2 Gy IR): 1.482; Fraction Affected (Bouvardin 0.01 uM + 2 Gy IR): 0.518; Combination Index (Bouvardin 0.01 uM + 4 Gy IR): 1.348; Fraction Affected (Bouvardin 0.01 uM + 4 Gy IR): 0.604; Combination Index (Bouvardin 0.03 uM + 1 Gy IR): 1.211; Fraction Affected (Bouvardin 0.03 uM + 1 Gy IR): 0.537; Combination Index (Bouvardin 0.03 uM + 2 Gy IR): 0.841; Fraction Affected (Bouvardin 0.03 uM + 2 Gy IR): 0.628; Combination Index (Bouvardin 0.03 uM + 4 Gy IR): 1.284; Fraction Affected (Bouvardin 0.03 uM + 4 Gy IR): 0.624; Combination Index (Bouvardin 0.06 uM + 1 Gy IR): 0.898; Fraction Affected (Bouvardin 0.06 uM + 1 Gy IR): 0.584; Combination Index (Bouvardin 0.06 uM + 2 Gy IR): 0.962; Fraction Affected (Bouvardin 0.06 uM + 2 Gy IR): 0.677; Combination Index (Bouvardin 0.06 uM + 4 Gy IR): 1.284; Fraction Affected (Bouvardin 0.06 uM + 4 Gy IR): 0.813; Combination Index (Bouvardin 0.1 uM + 1 Gy IR): 1.815; Fraction Affected (Bouvardin 0.1 uM + 1 Gy IR): 0.607; Combination Index (Bouvardin 0.1 uM + 2 Gy IR): 3.214; Fraction Affected (Bouvardin 0.1 uM + 2 Gy IR): 0.68; Combination Index (Bouvardin 0.1 uM + 4 Gy IR): 2.639; Fraction Affected (Bouvardin 0.1 uM + 4 Gy IR): 0.712; Combination Index (Bouvardin 0.3 uM + 1 Gy IR): 2.656; Fraction Affected (Bouvardin 0.3 uM + 1 Gy IR): 0.682; Combination Index (Bouvardin 0.3 uM + 2 Gy IR): 2.382; Fraction Affected (Bouvardin 0.3 uM + 2 Gy IR): 0.731; Combination Index (Bouvardin 0.3 uM + 4 Gy IR): 3.756; Fraction Affected (Bouvardin 0.3 uM + 4 Gy IR): 0.708; Combination Index (Bouvardin 0.6 uM + 1 Gy IR): 4.194; Fraction Affected (Bouvardin 0.6 uM + 1 Gy IR): 0.688; Combination Index (Bouvardin 0.6 uM + 2 Gy IR): 4.765; Fraction Affected (Bouvardin 0.6 uM + 2 Gy IR): 0.743; Combination Index (Bouvardin 0.6 uM + 4 Gy IR): 4.11; Fraction Affected (Bouvardin 0.6 uM + 4 Gy IR): 0.745; Combination Index (Bouvardin 1 uM + 1 Gy IR): 1.553; Fraction Affected (Bouvardin 1 uM + 1 Gy IR): 0.254; Combination Index (Bouvardin 1 uM + 2 Gy IR): 0.903; Fraction Affected (Bouvardin 1 uM + 2 Gy IR): 0.23; Combination Index (Bouvardin 1 uM + 4 Gy IR): 1.112; Fraction Affected (Bouvardin 1 uM + 4 Gy IR): 0.503
